Source: patent US20240417405A1, “Substituted Spiro Derivatives” (Janssen Pharmaceutica NV, priority 2021, published 2024)

Tests used:
[1] = target: T1, menin/MLL (terbium chelate-labeled menin, FITC-MBM1 peptide) (Homo sapiens, UniProt O00255, T541A); experiment: Menin/MLL homogenous time-resolved fluorescence (HTRF) assay; type: binding; details: 30 min incubation
T1 construct: Menin (a.a 1-610-6xhis tag)
T1 sequence (O00255 with tags, fused parts or gaps T541A): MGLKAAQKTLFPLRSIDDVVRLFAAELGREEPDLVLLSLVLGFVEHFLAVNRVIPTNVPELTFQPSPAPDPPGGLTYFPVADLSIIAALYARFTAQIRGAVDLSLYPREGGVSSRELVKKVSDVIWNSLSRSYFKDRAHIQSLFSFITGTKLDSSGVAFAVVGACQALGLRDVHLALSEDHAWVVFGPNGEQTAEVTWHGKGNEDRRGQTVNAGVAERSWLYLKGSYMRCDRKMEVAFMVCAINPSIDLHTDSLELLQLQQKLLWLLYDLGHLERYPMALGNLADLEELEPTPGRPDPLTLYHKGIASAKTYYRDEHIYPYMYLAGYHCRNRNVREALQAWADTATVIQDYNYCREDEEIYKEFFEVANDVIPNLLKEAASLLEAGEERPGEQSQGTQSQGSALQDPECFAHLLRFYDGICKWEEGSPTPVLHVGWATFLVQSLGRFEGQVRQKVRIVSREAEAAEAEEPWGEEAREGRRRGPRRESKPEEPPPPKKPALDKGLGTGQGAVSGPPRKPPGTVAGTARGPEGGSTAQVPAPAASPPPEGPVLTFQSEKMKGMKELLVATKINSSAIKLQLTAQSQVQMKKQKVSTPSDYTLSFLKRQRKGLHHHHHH
Method: 1) Menin/MLL Homogenous Time-Resolved Fluorescence (HTRF) Assay
To an untreated, white 384-well microtiter plate was added 40 nL 200× test compound in DMSO and 4 μL 2× terbium chelate-labeled menin (vide infra for preparation) in assay buffer (40 mM Tris.HCl, pH 7.5, 50 mM NaCl, 1 mM DTT (dithiothreitol) and 0.05% Pluronic F-127). After incubation of test compound and terbium chelate-labeled menin for 30 min at ambient temperature, 4 μL 2× FITC-MBM1 peptide (FITC-β-alanine-SARWRFPARPGT-NH2 (SEQ ID NO: 3)) (“FITC” means fluorescein isothiocyanate) in assay buffer was added, the microtiter plate centrifuged at 1000 rpm for 1 min and the assay mixtures incubated for 15 min at ambient temperature. The relative amount of menin FITC-MBM1 complex present in an assay mixture is determined by measuring the homogenous time-resolved fluorescence (HTRF) of the terbium/FITC donor/acceptor fluorophore pair using an EnVision microplate reader (ex. 337 nm/terbium em. 490 nm/FITC em. 520 nm) at ambient temperature. The degree of fluorescence resonance energy transfer (the HTRF value) is expressed as the ratio of the fluorescence emission intensities of the FITC and terbium fluorophores (F^em 520 nm/F^em 490 nm). The final concentrations of reagents in the binding assay are 200 pM terbium chelate-labeled menin, 75 nM FITC-MBM1 peptide and 0.5% DMSO in assay buffer. Dose-response titrations of test compounds are conducted using an 11 point, four-fold serial dilution scheme, starting typically at 10 μM.
Compound potencies were determined by first calculating % inhibition at each compound concentration according to equation 1:
% inhibition=((HC−LC)−(HTRF^compound−LC))/(HC−LC))*100 (Eqn 1)
Where LC and HC are the HTRF values of the assay in the presence or absence of a saturating concentration of a compound that competes with FITC-MBM1 for binding to menin, and HTRF^compound is the measured HTRF value in the presence of the test compound. HC and LC HTRF values represent an average of at least 10 replicates per plate.
% inhibition=Bottom+(Top−Bottom)/(1+10^((logIC50−log[cmpd])*h)) (Eqn 2)
Where Bottom and Top are the lower and upper asymptotes of the dose-response curve, respectively, IC50 is the concentration of compound that yields 50% inhibition of signal and h is the Hill coefficient. IC50 values below 0.1 nM in the HTRF assay were reported as 0.1 nM in the Table below (detection limit).
Preparation of Terbium cryptate labeling of Menin: Menin (a.a 1-610-6xhis tag (“6xhis tag” disclosed as SEQ ID NO: 2), 2.3 mg/mL in 20 mM Hepes (2-[4-(2-Hydroxyethyl)-1-piperazinyl]ethane sulfonic acid), 80 mM NaCl, 5 mM DTT (Dithiothreitol), pH 7.5) was labeled with terbium cryptate as follows. 200 μg of Menin was buffer exchanged into 1× Hepes buffer. 6.67 μM Menin was incubated with 8-fold molar excess NHS (N-hydroxysuccinimide)-terbium cryptate for 40 minutes at room temperature. Half of the labeled protein was purified away from free label by running the reaction over a NAP5 column with elution buffer (0.1 M Hepes, pH 7+0.1% BSA (bovine serum albumin)). The other half was eluted with 0.1 M phosphate buffered saline (PBS), pH7. 400 μl of eluent was collected for each, aliquoted and frozen at −80° C. The final concentration of terbium-labeled Menin protein was 115 μg/mL in Hepes buffer and 85 μg/mL in PBS buffer, respectively.

MOLM14 cells = experiment: Proliferation assay, spheroid-like growth, MOLM14 (MLL-AF9 rearranged); type: cell-based, human; details: Homo sapiens, MOLM-14, 192 h, 8 days, confluence as measure of spheroid size, read-out: spheroid assay_OneTime MOLM14 IC50
Method: The anti-proliferative effect of menin/MLL protein/protein interaction inhibitor test compounds was assessed in human leukemia cell lines. The cell line MOLM14 harbors a MLL translocation and expresses the MLL fusion proteins MLL-AF9, respectively, as well as the wildtype protein from the second allele. […] KO-52 was used as a control cell line containing two MLL (KMT2A) wildtype alleles in order to exclude compounds that display general cytotoxic effects.
MOLM14 cells were cultured in RPMI-1640 (Sigma Aldrich) supplemented with 10% heat-inactivated fetal bovine serum (HyClone), 2 mM L-glutamine (Sigma Aldrich) and 50 μg/ml gentamycin (Gibco). KO-52 cell lines were propagated in alpha-MEM (Sigma Aldrich) supplemented with 20% heat-inactivated fetal bovine serum (HyClone), 2 mM L-glutamine (Sigma Aldrich) and 50 μg/ml gentamycin (Gibco).
In order to assess the anti-proliferative effects, 200 MOLM14 cells, or 300 KO-52 cells were seeded in 200 μl media per well in 96-well round bottom, ultra-low attachment plates (Costar, catalogue number 7007). Cell seeding numbers were chosen based on growth curves to ensure linear growth throughout the experiment. Test compounds were added at different concentrations and the DMSO content was normalized to 0.3%. Cells were incubated for 8 days at 37° C. and 5% CO2. Spheroid like growth was measured in real-time by live-cell imaging (IncuCyteZOOM, Essenbio, 4× objective) acquiring images at day 8. Confluence (%) as a measure of spheroid size was determined using an integrated analysis tool.
In order to determine the effect of the test compounds over time, the confluence in each well as a measure of spheroid size, was calculated. Confluence of the highest dose of a reference compound was used as baseline for the LC (Low control) and the confluence of DMSO treated cells was used as 0% cytotoxicity (High Control, HC).
Absolute IC50 values were calculated as percent change in confluence as follows:
LC=Low Control: cells treated with e.g. 1 μM of the cytotoxic agent staurosporin, or e.g. cells treated with a high concentration of an alternative reference compound
GraphPad Prism (version 7.00) was used to calculate the IC50. Dose-response equation was used for the plot of % Effect vs Log 10 compound concentration with a variable slope and fixing the maximum to 100% and the minimum to 0%.

Row | IC50 [1] [nM] | IC50 (MOLM14 cells) [nM] | Compound
1 | 5 | > 940 | CC(C)[C@H]([C@H]1C[C@@H](N2CCC3(CCO3)CC2)C1)N1CC2(CCN(c3ncnnc3Oc3ccc(F)cc3-c3cnncc3C3CC3)C2)C1 (single isomer, unassigned) [Compound 280a]
2 | 0.17 | 10 | CC(C)[C@@H]([C@H]1C[C@@H](N2CCC3(CCO3)CC2)C1)N1CC2(CCN(c3ncnnc3Oc3ccc(F)cc3-c3cnncc3C3CC3)C2)C1 (single isomer, unassigned) [Compound 281a]
3 | 0.31 | 83 | CC(C)[C@@H]([C@H]1C[C@H](N2CCC3(CCO3)CC2)C1)N1CC2(CCN(c3ncnnc3Oc3ccc(F)cc3-c3cnncc3C3CC3)C2)C1 (single isomer, unassigned) [Compound 281b]
4 | 2.4 | 280 | CO[C@H]1[C@@H]2CN([C@H]3C[C@@H]([C@H](C(C)C)N4CC5(CCN(c6ncnnc6Oc6ccc(F)cc6-c6cnncc6C6CC6)C5)C4)C3)C[C@@H]21 (single isomer, unassigned) [Compound 282a]
5 | 24.2 | > 940 | CC(C)[C@@H]([C@H]1C[C@@H](NC(=O)C2CC2)C1)N1CC2(CCN(c3ncnnc3Oc3ccc(F)cc3-c3n[nH]c(=O)cc3C3CC3)C2)C1 (single isomer, unassigned) [Compound 310]
6 | 0.3 | 60 | CC(C)[C@H]([C@H]1C[C@@H](N2CC3(CNC(=O)O3)C2)C1)N1CC2(CCN(c3ncnnc3Oc3ccc(F)cc3-c3cncnc3C3CC3)C2)C1 (single isomer, unassigned) [Compound 317]
7 | 0.2 | 53 | CC(C)[C@@H]([C@H]1C[C@]2(COC(=O)N2)C1)N1CC2(CCN(c3ncnnc3Oc3ccc(F)cc3-c3cnncc3C3CC3)C2)C1 (single isomer, unassigned) [Compound 323]
8 | 0.1 | 33 | CC(C)[C@H]([C@H]1C[C@@H](N2CCC3(CNC(=O)O3)C2)C1)N1CC2(CCN(c3ncnnc3Oc3ccc(F)cc3-c3nnccc3C3CC3)C2)C1 (single isomer, unassigned) [Compound 328]
9 | 0.3 | 32 | CC(C)[C@H]([C@H]1C[C@@H](N2CCC3(CN(C)C(=O)O3)C2)C1)N1CC2(CCN(c3ncnnc3Oc3ccc(F)cc3-c3cncnc3C3CC3)C2)C1 (single isomer, unassigned) [Compound 329]
10 | 0.7 | 37 | CO[C@H]1CCN([C@H]2C[C@H](C(C(C)C)N3CC4(CCN(c5ncnnc5Oc5ccc(F)cc5-c5nnccc5C5CC5)C4)C3)C2)C1 (single isomer, unassigned) [Compound 332]
11 | 0.1 | 10 | CNC(=O)CCN(C)[C@H]1C[C@@H]([C@@H](C(C)C)N2CC3(CCN(c4ncnnc4Oc4ccc(F)cc4-c4cncnc4C4CC4)C3)C2)C1 (single isomer, unassigned) [Compound 350]
12 | 0.2 | 18 | CC(=O)N1CC2(C1)CN([C@H]1C[C@H]([C@H](C(C)C)N3CC4(CCN(c5ncnnc5Oc5ccc(F)cc5-c5cnc(C)cc5C5CC5)C4)C3)C1)C2 (single isomer, unassigned) [Compound 372]
13 | 0.19 | 140 | CC(=O)N1CC2(C1)CN([C@H]1C[C@H]([C@H](C(C)C)N3CC4(CCN(c5ncnnc5Oc5ccc(F)cc5-c5ncc(C)cc5C5CC5)C4)C3)C1)C2 (single isomer, unassigned) [Compound 374]
14 | 0.92 | 200 | CO[C@H]1CCN(C2CC(C(C(C)C)N3CC4(CCN(c5ncnnc5Oc5ccc(F)cc5-c5nnc(C)cc5C5CC5)C4)C3)C2)C1 (single isomer, unassigned) [Compound 399]
15 | 0.3 | 42 | CC(C)[C@H]([C@H]1C[C@@H](Nc2ccn3ccnc3c2)C1)N1CC2(CCN(c3ncnnc3Oc3ccc(F)cc3-c3cncnc3C3CC3)C2)C1 (single isomer, unassigned) [Compound 406]
16 | 0.14 | 220 | CC(C)[C@H]([C@H]1C[C@@H](Nc2ccnc(NS(C)(=O)=O)n2)C1)N1CC2(CCN(c3ncnnc3Oc3ccc(F)cc3-c3cncnc3C3CC3)C2)C1 (single isomer, unassigned) [Compound 408]
17 | 0.11 | 19 | CC(=O)Nc1cncc(N[C@H]2C[C@@H](C(C(C)C)N3CC4(CCN(c5ncnnc5Oc5ccc(F)cc5-c5cncnc5C5CC5)C4)C3)C2)c1 (single isomer, unassigned) [Compound 410]
18 | 0.15 | 10 | CC(C)C(C1CC(Nc2ncc3cn[nH]c3n2)C1)N1CC2(CCN(c3ncnnc3Oc3ccc(F)cc3-c3cncnc3C3CC3)C2)C1 (single isomer, unassigned) [Compound 411]
19 | 0.16 | < 1.8 | CC(C)[C@H]([C@H]1C[C@@H](Nc2ccn3ccnc3n2)C1)N1CC2(CCN(c3ncnnc3Oc3ccc(F)cc3-c3cncnc3C3CC3)C2)C1 (single isomer, unassigned) [Compound 412]
